According to patent US20220323356A1, “METAL (HYDR)OXIDE COMPOSITE COMPRISING POORLY SOLUBLE DRUG, METHOD FOR PREPARING SAME, AND PHARMACEUTICAL COMPOSITION COMPRISING SAME” (priority 2020, published 2022):

How the values were obtained:
[1] = in vivo; cited from earlier work
[2] = In-vivo pharmacokinetic analysis of calcined metal (hydr)oxide-docetaxel compositions, single oral administration; conditions: rat, 40 mg/kg

SMILES: CC(=O)O[C@@]12CO[C@@H]1C[C@H](O)[C@@]1(C)C(=O)[C@H](O)C3=C(C)[C@@H](OC(=O)[C@H](O)[C@@H](NC(=O)OC(C)(C)C)c4ccccc4)C[C@@](O)([C@@H](OC(=O)c4ccccc4)[C@H]21)C3(C)C [Docetaxel]
- bioavailability (%) [1]: 8%
- AUC(0-t) [2]: 47.5 ng·h/mL
- Tmax [2]: 0.5 h
- half-life [2]: 9.41 h
- Cmax ([2]; Cmax, Docetaxel PO 40 mg/kg, rats): 5.25 ng/mL
